Read-outs that look alike come from different tables or passages of the source.
Legend:
[1] = test system: TNFα; assay: Cot Monocyte TNFα Cell Based Assay
[2] = target: Human Cot (Homo sapiens (Human), UniProt P41279); assay: High Throughput Cot Biochemical Assay
[3] = Homo sapiens, Monocyte, read-out: EC50 TNF, LPS-stimulated human monocytes, TNFα
[4] = IC50 HTRF, Cot HTRF (TR-FRET) biochemical assay
[5] = Homo sapiens, Monocyte, read-out: EC50 TNF, LPS-stimulated human monocytes, TNFα TR-FRET
[6] = IC50 HTRF, Cot HTRF (TR-FRET KinEASE) biochemical assay, 400 μM ATP

Human Cot, sequence (P41279 30-397): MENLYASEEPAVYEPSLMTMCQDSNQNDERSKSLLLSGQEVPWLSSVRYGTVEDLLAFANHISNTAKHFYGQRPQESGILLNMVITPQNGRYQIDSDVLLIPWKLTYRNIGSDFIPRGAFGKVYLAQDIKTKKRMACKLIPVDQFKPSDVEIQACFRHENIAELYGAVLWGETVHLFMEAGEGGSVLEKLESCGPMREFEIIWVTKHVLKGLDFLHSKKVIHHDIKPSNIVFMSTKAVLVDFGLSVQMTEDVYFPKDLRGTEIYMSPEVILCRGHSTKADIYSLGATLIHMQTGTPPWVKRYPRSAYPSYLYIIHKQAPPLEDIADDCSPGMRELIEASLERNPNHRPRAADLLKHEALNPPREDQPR

Structure (SMILES): Cc1ncsc1[C@H](Nc1cc(Cl)c2ncc(C#N)c(Nc3ccc(Cl)c(Cl)c3F)c2c1)c1cn(C(C)C)nn1 [Example 235, (R)-8-chloro-4-((3,4-dichloro-2-fluorophenyl)amino)-6-(((1-isopropyl-1H-1,2,3-triazol-4-yl)(4-methylthiazol-5-yl)methyl)amino)quinoline-3-carbonitrile]
- EC50 [1, 3]: 370 nM
- IC50 [2, 4]: 17 nM

Structure (SMILES): [2H]C(Nc1cc(Cl)c2ncc(C#N)c(N[C@H](CCO)c3ccccc3)c2c1)(c1ccc(F)nc1)c1cn(C2CC2)nn1 (stereo partly drawn) [Example 121, 8-chloro-6-(((1-cyclopropyl-1H-1,2,3-triazol-4-yl)(6-fluoropyridin-3-yl)methyl-d)amino)-4-(((R)-3-hydroxy-1-phenylpropyl)amino)quinoline-3-carbonitrile]
- EC50 [1, 3]: 171 nM
- IC50 [2, 4]: 7 nM

Structure (SMILES): CC(C)n1cc([C@@H](Nc2cc(Cl)c3ncc(C#N)c(Nc4ccc(F)c(Cl)c4)c3c2)c2ccc3ncsc3c2)nn1 [Example 61, (S)-6-((benzo[d]thiazol-6-yl(1-isopropyl-1H-1,2,3-triazol-4-yl)nielhyl)amino)-8-chloro-4-((3-chloro-4-fluorophenyl)amino)quinoline-3-carbonitrile]
- EC50 ([1]; read-out: EC50 TNF, LPS-stimulated human monocytes, TNFα): 238 nM
- IC50 ([2]; read-out: IC50 HTRF, Cot HTRF (TR-FRET) biochemical assay): 11 nM

Structure (SMILES): N#Cc1cnc2c(Cl)cc(N[C@@H](c3cscn3)c3cn(Cc4ccccn4)nn3)cc2c1Nc1ccc(F)c(Cl)c1 [Example 316, (S)-8-chloro-4-((3-chloro-4-fluorophenyl)amino)-6-(((1-(pyridin-2-ylmethyl)-1H-1,2,3-triazol-4-yl)(thiazol-4-yl)methyl)amino)quinoline-3-carbonitrile]
- EC50 [1, 3]: 298 nM
- IC50 [2, 4]: 6 nM

Structure (SMILES): N#Cc1cnc2c(Cl)cc(N[C@H](c3cn(CCO)nn3)c3cccnc3Cl)cc2c1Nc1ccc(F)c(Cl)c1 [Example 331, (S)-8-chloro-4-((3-chloro-4-fluorophenyl)amino)-6-(((2-chloropyridin-3-yl)(1-(2-hydroxy-ethyl)-1H-1,2,3-triazol-4-yl)methyl)amino)quinoline-3-carbonitrile]
- EC50 [1, 3]: 173 nM
- IC50 [2, 4]: 3 nM

Structure (SMILES): Cn1ccc2c([C@H](Nc3cc(C#N)c4ncc(C#N)c(NCC(C)(C)C)c4c3)c3cn(C45CC(C4)C5)nn3)cccc2c1=O [Example 891, (S)-6-(((1-(bicyclo[1.1.1]pentan-1-yl)-1H-1,2,3-triazol-4-yl)(2-methyl-1-oxo-1,2-dihydroisoquinolin-5-yl)methyl)amino)-4-(neopentylamino)quinoline-3,8-dicarbonitrile]
- EC50 [1, 5]: 12 nM
- IC50 [2, 6]: 1 nM

Structure (SMILES): Cc1nc(F)ccc1[C@H](Nc1cc(C#N)c2ncc(C#N)c(NCC(C)(C)C(F)(F)F)c2c1)c1cn(C2(C(F)F)CC2)nn1 [Example 841]
- EC50 ([1]; read-out: EC50 TNF, LPS-stimulated human monocytes, TNFα TR-FRET): 41 nM
- IC50 ([2]; read-out: IC50 HTRF, Cot HTRF (TR-FRET KinEASE) biochemical assay, 400 μM ATP): 2 nM

Structure (SMILES): Cn1ncc2c([C@H](Nc3cc(C#N)c4ncc(C#N)c(NCC(C)(C)C)c4c3)c3cn(C4CC4)nn3)cccc21 [Example 609, (S)-6-(((1-cyclopropyl-1H-1,2,3-triazol-4-yl)(1-methyl-1H-indazol-4-yl)methyl)amino)-4-(neopentylamino)quinoline-3,8-dicarbonitrile]
- EC50 [1, 3]: 46 nM
- IC50 [2, 4]: 2 nM

Structure (SMILES): [2H][C@](Nc1cc(Cl)c2ncc(C#N)c(NC3CCOCC3(C)C)c2c1)(c1ccc(F)nc1)c1cn(C2CC2)nn1 (stereo partly drawn) [Example 92, 8-chloro-6-(((S)-(1-cyclopropyl-1H-1,2,3-triazol-4-yl)(6-fluoropyridin-3-yl)methyl-d)amino)-4-((3,3-dimethyltetrahydro-2H-pyran-4-yl)amino)quinoline-3-carbonitrile]
- EC50 [1, 3]: 65 nM
- IC50 [2, 4]: 6 nM

Structure (SMILES): Cc1nc(F)ccc1[C@H](Nc1cc(C#N)c2ncc(C#N)c(NCC(C)(C)C)c2c1)c1nnn([C@@H](C)CF)c1F [Example 854, 6-(((S)-(5-fluoro-1-((S)-1-fluoropropan-2-yl)-1H-1,2,3-triazol-4-yl)(6-fluoro-2-methylpyridin-3-yl)methyl)amino)-4-(neopentylamino)quinoline-3,8-dicarbonitrile]
- EC50 [1, 5]: 17 nM
- IC50 [2, 6]: 4 nM

Structure (SMILES): CCc1nc(F)ccc1[C@H](Nc1cc(Cl)c2ncc(C#N)c(NCC(C)(C)C)c2c1)c1cn(C2(C(F)F)CC2)nn1 [Example 592, (S)-8-chloro-6-(((1-(1-(difluoromethyl)cyclo-propyl)-1H-1,2,3-triazol-4-yl)(2-ethyl-6-fluoropyridin-3-yl)methyl)amino)-4-(neopentylamino)quinoline-3-carbonitrile]
- EC50 [1, 3]: 78 nM
- IC50 [2, 4]: 5 nM

Structure (SMILES): Cc1nc(F)ccc1[C@H](Nc1cc(Cl)c2ncc(C#N)c(NCC(C)(C)CO)c2c1)c1cn(C2(C(F)(F)F)CC2)nn1 [Example 534, (S)-8-chloro-6-(((6-fluoro-2-methylpyridin-3-yl)(1-(1-(trifluoromethyl)cyclopropyl)-1H-1,2,3-triazol-4-yl)methyl)amino)-4-((3-hydroxy-2,2-dimethylpropyl)amino)-quinoline-3-carbonitrile]
- EC50 [1, 3]: 394 nM
- IC50 [2, 4]: 20 nM

Structure (SMILES): CC(C)n1cc([C@@H](Nc2cc(Cl)c3ncc(C#N)c(Nc4ccc(F)c(Cl)c4)c3c2)c2cccnc2Cl)nn1 [Example 297, (S)-8-chloro-4-((3-chloro-4-fluoro-phenyl)amino)-6-(((2-chloropyridin-3-yl)(1-isopropyl-1H-1,2,3-triazol-4-yl)methyl)amino)quinoline-3-carbonitrile]
- EC50 [1, 3]: 200 nM
- IC50 [2, 4]: 9 nM

Structure (SMILES): [2H]C(Nc1cc(Cl)c2ncc(C#N)c(NCC(C)(C)C)c2c1)(c1cn(C2CC2)nn1)c1scnc1C (stereo not drawn) [Example 102, 8-chloro-6-(((1-cyclopropyl-1H-1,2,3-triazol-4-yl)(4-methylthiazol-5-yl)methyl-d)amino)-4-(neopentyl-amino)quinoline-3-carbonitrile]
- EC50 [1, 3]: 461 nM
- IC50 [2, 4]: 3 nM

Structure (SMILES): Cc1nc(F)ccc1[C@H](Nc1cc(Cl)c2ncc(C#N)c(NCC(C)(C)C#N)c2c1)c1cn(C2(C(F)(F)F)CC2)nn1 [Example 633, (S)-8-chloro-4-((2-cyano-2-methylpropyl)amino)-6-(((6-fluoro-2-methylpyridin-3-yl)(1-(1-(trifluoromethyl)cyclopropyl)-1H-1,2,3-triazol-4-yl)methyl)amino)quinoline-3-carbonitrile]
- EC50 [1, 3]: 267 nM
- IC50 [2, 4]: 28 nM

Structure (SMILES): CC(C)(C)CNc1c(C#N)cnc2c(Cl)cc(N[C@H](c3cn(C(CF)CF)nn3)c3cccc4ncccc34)cc12 [Example 804, (S)-8-chloro-6-(((1-(1,3-difluoropropan-2-yl)-1H-1,2,3-triazol-4-yl)(quinolin-5-yl)methyl)amino)-4-(neopentylamino)quinoline-3-carbonitrile]
- EC50 [1, 5]: 137 nM
- IC50 [2, 6]: 9 nM

Structure (SMILES): CC(C)n1cc([C@@H](Nc2cc(Cl)c3ncc(C#N)c(Nc4ccc(F)c(Cl)c4)c3c2)c2ccc3c(c2)CNCC3)nn1 [Example 50, (S)-8-chloro-4-((3-chloro-4-fluorophenyl)amino)-6-(((1-isopropyl-1H-1,2,3-triazol-4-yl)(1,2,3,4-tetrahydroisoquinolin-7-yl)methyl)amino)quinoline-3-carbonitrile]
- EC50 [1, 3]: 3530 nM
- IC50 [2, 4]: 70 nM

Structure (SMILES): CC1(n2cc([C@@H](Nc3cc(C#N)c4ncc(C#N)c(NCC(C)(C)C(F)(F)F)c4c3)c3ccc(F)c4ncccc34)nn2)CC1 [Example 813, (S)-6-(((8-fluoroquinolin-5-yl)(1-(1-methylcyclopropyl)-1H-1,2,3-triazol-4-yl)methyl)amino)-4-((3,3,3-trifluoro-2,2-dimethylpropyl)amino)quinoline-3,8-dicarbonitrile]
- EC50 [1, 5]: 24 nM
- IC50 [2, 6]: 2 nM

From patent US11066414B2, “Cot modulators and methods of use thereof” (Gilead Sciences, Inc., priority 2015, dated 2021)
